PMC9851200, “Multiparameter phenotypic screening for endogenous TFEB and TFE3 translocation identifies novel chemical series modulating lysosome function” (Autophagy, 2022)

What was measured:
SH-SY5Y cells [1] = experiment: Chemotype enrichment analysis of PKIS2 primary screen hit categories; conditions: PKIS2 primary screening, hit category
SH-SY5Y cells [2] = conditions: PKIS2 primary screening; for DQ Intensity: DQ Red BSA intensity; for DQ Spot: DQ Red BSA spot count
Description: The PKIS2 Library was supplied by The Structural Genomics Consortium at the University of North Carolina at Chapel Hill.

SH-SY5Y cells [3] = experiment: Nuclear count from microscopy images (cellular growth and toxicity); conditions: PKIS2 primary screening; note: reference of the scale not given here
endogenous TFEB = experiment: TFEB nuclear translocation, immunocytochemistry high-content imaging; assay type: cell-based; conditions: PKIS2 primary screening
SH-SY5Y cells [4] = experiment: AK (adenylate kinase) release ToxiLight cytotoxicity assay; conditions: PKIS2 primary screening; note: reference of the scale not given here
endogenous TFE3 = experiment: TFE3 nuclear translocation, immunocytochemistry high-content imaging; assay type: cell-based; conditions: PKIS2 primary screening
Throughout, for DQ Intensity: reference of the scale not given here.
Throughout, for DQ Spot: reference of the scale not given here.

Structure (SMILES) | Outcome (SH-SY5Y cells [1]) | DQ Intensity (SH-SY5Y cells [2]) | DQ Spot (SH-SY5Y cells [2]) | Nuclear Count (SH-SY5Y cells [3]) | TFEB % (endogenous TFEB) [%] | AK (SH-SY5Y cells [4]) | TFE3 % (endogenous TFE3) [%]
Cl.c1ccc(Oc2ccc(Nc3ccnc4cc(-c5ccc(CN6CCNCC6)o5)ccc34)cc2)nc1 [UNC10225130B] | LYSO TOXIC | 87.94 | 55.20 | 88.02 | 17.19 | 101.15 | 38.53
Cl.Cn1ccc(-c2cccc(Nc3ccnc4cc(-c5nccs5)ccc34)c2)n1 [UNC10225141A] | TOXIC | 161.91 | 66.27 | 43.03 | 12.07 | 174.83 | 26.05
COc1cc2nccc(Nc3cccc(Oc4ccccc4)c3)c2cc1OC.Cl [UNC10225170A] | TFEB/TFE3 | 93.52 | 79.85 | 91.34 | 18.56 | 71.46 | 29.93
Cl.Cl.NC(CNC(=O)c1cc(Br)c(-c2ccnc3[nH]ccc23)s1)c1ccccc1 (stereo not drawn) [UNC10225176A] | TFEB/3 + DQ Int | 298.60 | 72.64 | 58.33 | 17.27 | 110.45 | 37.70
Cc1ccc(C(=O)Nc2ccc(Nc3ccnc4cc(-c5ccccn5)ccc34)cc2O)cc1.Cl [UNC10225182A] | LYSO TOXIC | 19.25 | 15.81 | 71.22 | 30.37 | 82.72 | 92.07
Fc1cc(Cl)ccc1Nc1ccnc2cc(I)ccc12 [UNC10225189A] | LYSO TOXIC | 39.14 | 61.91 | 145.49 | 3.86 | 112.41 | 9.39
c1ccc(Oc2ccc(Nc3ccnc4ccc(-c5ccccn5)cc34)cc2)cc1 [UNC10225215A] | LYSO TOXIC | 94.87 | 78.82 | 111.99 | 9.01 | 106.19 | 13.98
CN1C(=O)C(Nc2ccccc2)=C(c2ccccc2)C1=O [UNC10225242A] | TOXIC | 102.22 | 99.91 | 117.96 | 6.14 | 287.85 | 13.56
Cl.Cl.NC[C@H](CC1CCCCC1)NC(=O)c1cc(Br)c(-c2ccnc3[nH]ccc23)s1 [UNC10225276A] | TFEB/3 + DQ Int | 221.52 | 71.17 | 101.96 | 12.93 | 108.11 | 33.43
Fc1cc(Cl)ccc1Nc1ccnc2cc(-c3ccc(CN4CCSCC4)o3)ccc12 [UNC10225290A] | LYSO TOXIC | 59.38 | 53.95 | 127.72 | 9.12 | 104.94 | 15.63
Nc1nc(-c2cccnc2)c(-c2ccnc3ccccc23)s1 [UNC10225309A] | DQ and TFEB | 115.27 | 134.42 | 71.32 | 13.96 | 67.30 | 14.98
Cc1cccc2c(-c3ccncc3)c(-c3ccc(F)cc3)nn12.Cl [UNC10225316A] | TFE3 | 71.88 | 91.98 | 85.13 | 5.61 | 93.04 | 21.03
Fc1cccc(COc2ccc(Nc3ncnc4nn5ccccc5c34)cc2Cl)c1 [UNC10225319A] | TFE3 + DQ | 134.45 | 139.92 | 77.83 | 3.13 | 110.07 | 21.26
COc1ccc(-c2nc3n(c2-c2ccncc2)CCC3)cc1 [UNC10225334A] | DQ Only | 120.06 | 119.57 | 82.13 | 5.64 | 77.50 | 11.25
c1ccc(-c2ccnc3[nH]ccc23)cc1 [UNC10225337A] | TOXIC | 103.32 | 96.87 | 120.86 | 6.67 | 289.20 | 8.32
